Source: ChEMBL document CHEMBL1909046, “DrugMatrix in vitro pharmacology data”
pIC50, pKi: −log10 of the molar value.

Columns and labels:
[1] = DRUGMATRIX: Tumor Necrosis Factor (TNF), Non-Selective radioligand binding (ligand: [125I] TNF-alpha); type: cell membranes, Membrane; settings: u-937; Not Active = under 50% inhibition at 10 µM
Cannabinoid receptor 1 = Cannabinoid receptor 1 (Homo sapiens, UniProt P21554); type: cell membranes, Chem-1, Membrane; settings: chem-1; further: in other assays of this panel Not Active means under 50% inhibition at 10 µM
Sequence of Cannabinoid receptor 1 (P21554 whole entry): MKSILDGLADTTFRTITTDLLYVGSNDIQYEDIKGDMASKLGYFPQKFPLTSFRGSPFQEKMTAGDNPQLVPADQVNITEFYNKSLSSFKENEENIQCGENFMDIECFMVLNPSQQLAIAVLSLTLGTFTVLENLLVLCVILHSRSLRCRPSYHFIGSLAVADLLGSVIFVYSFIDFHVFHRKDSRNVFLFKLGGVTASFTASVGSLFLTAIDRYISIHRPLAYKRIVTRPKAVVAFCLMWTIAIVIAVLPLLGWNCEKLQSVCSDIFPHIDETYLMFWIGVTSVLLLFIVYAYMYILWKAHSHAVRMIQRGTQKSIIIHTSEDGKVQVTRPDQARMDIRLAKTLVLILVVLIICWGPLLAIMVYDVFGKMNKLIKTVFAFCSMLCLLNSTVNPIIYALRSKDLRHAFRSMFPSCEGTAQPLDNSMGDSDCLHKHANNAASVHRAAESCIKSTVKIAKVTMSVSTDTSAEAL

[2] = DRUGMATRIX: Phosphodiesterase PDE4 enzyme inhibition (substrate: [3H]cAMP + cAMP); settings: u-937; Not Active = under 50% inhibition at 10 µM
Adenosine receptor A1 = target: T1, Adenosine receptor A1 (Homo sapiens, UniProt P30542); type: cell membranes, CHO, Membrane; settings: cho;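 further: radioligand binding assay at the adenosine A1 receptor, with DPCPX serving as the labelled ligand; in other assays of this panel Not Active means under 50% inhibition at 10 µM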
T1 sequence (P30542 whole entry): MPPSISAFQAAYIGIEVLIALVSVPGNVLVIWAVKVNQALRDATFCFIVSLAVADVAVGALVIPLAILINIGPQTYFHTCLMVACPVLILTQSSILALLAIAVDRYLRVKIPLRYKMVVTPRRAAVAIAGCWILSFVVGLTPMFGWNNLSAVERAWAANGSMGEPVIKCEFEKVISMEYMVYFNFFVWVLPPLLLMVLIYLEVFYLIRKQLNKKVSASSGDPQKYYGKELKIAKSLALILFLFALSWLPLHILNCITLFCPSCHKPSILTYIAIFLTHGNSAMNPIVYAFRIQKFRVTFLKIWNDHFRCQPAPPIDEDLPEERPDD

[3] = target: 5-hydroxytryptamine receptor 1B (Rattus norvegicus, UniProt P28564); type: cell membranes, Wistar, Cerebral cortex, Membrane; further: in other assays of this panel Not Active means under 50% inhibition at 10 µM
Sequence of 5-hydroxytryptamine receptor 1B (P28564 whole entry): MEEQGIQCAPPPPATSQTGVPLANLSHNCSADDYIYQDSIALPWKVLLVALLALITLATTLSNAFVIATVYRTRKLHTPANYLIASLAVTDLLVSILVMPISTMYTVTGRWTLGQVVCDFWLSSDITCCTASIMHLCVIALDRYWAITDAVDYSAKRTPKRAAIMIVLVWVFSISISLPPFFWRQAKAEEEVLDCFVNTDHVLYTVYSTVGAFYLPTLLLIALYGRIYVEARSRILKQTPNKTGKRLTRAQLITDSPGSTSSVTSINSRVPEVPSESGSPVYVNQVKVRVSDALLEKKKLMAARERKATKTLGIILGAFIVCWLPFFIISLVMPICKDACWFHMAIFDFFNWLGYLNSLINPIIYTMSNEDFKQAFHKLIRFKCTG

[4] = target: T2, Cholecystokinin receptor type A (Homo sapiens, UniProt P32238); type: cell membranes, Membrane; settings: 1321-n1; further: in other assays of this panel Not Active means under 50% inhibition at 10 µM
T2 sequence (P32238 whole entry): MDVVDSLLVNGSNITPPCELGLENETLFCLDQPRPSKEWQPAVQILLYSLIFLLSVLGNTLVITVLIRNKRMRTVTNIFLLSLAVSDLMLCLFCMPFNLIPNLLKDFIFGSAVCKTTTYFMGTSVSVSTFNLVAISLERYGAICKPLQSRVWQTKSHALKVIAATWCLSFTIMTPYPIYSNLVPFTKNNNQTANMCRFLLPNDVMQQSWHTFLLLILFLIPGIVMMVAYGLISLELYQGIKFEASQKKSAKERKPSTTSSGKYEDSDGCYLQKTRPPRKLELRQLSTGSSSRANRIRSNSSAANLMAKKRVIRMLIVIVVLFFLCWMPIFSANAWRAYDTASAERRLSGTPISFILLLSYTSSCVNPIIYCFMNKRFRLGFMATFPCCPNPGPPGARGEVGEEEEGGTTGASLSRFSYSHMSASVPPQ

Row | SMILES | IC50 [1] | Ki [1] | IC50 (Cannabinoid receptor 1) | IC50 [2] | Ki [2] | IC50 (Adenosine receptor A1) | IC50 [3] | IC50 [4] | pIC50 ([3]; read-out: IC50) | pKi ([3]; read-out: Ki)
1 | O=C(c1ccccc1C(F)(F)F)N1CCC(Cc2ccccc2)CC1 | Not Active | Not Active | Not Active | Not Active | Not Active | Not Active | Not Active | Not Active | – | –
2 | O=C/C=C/c1ccccc1 | Not Active | Not Active | Not Active | Not Active | Not Active | Not Active | Not Active | Not Active | – | –
3 | Nc1ccc2c3c(cccc13)C(=O)NC2=O | Not Active | Not Active | Not Active | Not Active | Not Active | Not Active | Not Active | Not Active | – | –
4 | COc1ccc(C(=O)N2CCCC2=O)cc1 | Not Active | Not Active | Not Active | Not Active | Not Active | Not Active | Not Active | Not Active | – | –
5 | O=c1cnn([C@@H]2O[C@H](CO)[C@@H](O)[C@H]2O)c(=O)[nH]1 [6-AZAURIDINE] | Not Active | Not Active | Not Active | Not Active | Not Active | Not Active | Not Active | Not Active | – | –
6 | CC[C@H](C)[C@H]1O[C@]2(C=C[C@@H]1C)C[C@@H]1C[C@@H](C/C=C(\C)[C@@H](O[C@H]3C[C@H](OC)[C@@H](O[C@H]4C[C@H](OC)[C@@H](O)[C@H](C)O4)[C@H](C)O3)[C@@H](C)/C=C/C=C3\CO[C@@H]4[C@H](O)C(C)=C[C@@H](C(=O)O1)[C@]34O)O2.CO[C@H]1C[C@H](O[C@H]2[C@H](C)O[C@@H](O[C@@H]3/C(C)=C/C[C@@H]4C[C@@H](C[C@]5(C=C[C@H](C)[C@@H](C(C)C)O5)O4)OC(=O)[C@@H]4C=C(C)[C@@H](O)[C@H]5OC/C(=C\C=C\[C@@H]3C)[C@]54O)C[C@@H]2OC)O[C@@H](C)[C@@H]1O [ABAMECTIN] | Not Active | Not Active | Not Active | Not Active | Not Active | Not Active | Not Active | Not Active | – | –
7 | NCCCC(O)(P(=O)(O)O)P(=O)(O)O [ALENDRONIC ACID] | Not Active | Not Active | Not Active | Not Active | Not Active | Not Active | Not Active | Not Active | – | –
8 | Cc1nnc2n1-c1ccc(Cl)cc1C(c1ccccc1)=NC2 [ALPRAZOLAM] | Not Active | Not Active | Not Active | Not Active | Not Active | Not Active | Not Active | Not Active | – | –
9 | Cn1c(=O)c2[nH]cnc2n(C)c1=O.Cn1c(=O)c2[nH]cnc2n(C)c1=O.NCCN [AMINOPHYLLINE] | Not Active | Not Active | Not Active | Not Active | Not Active | Not Active | Not Active | Not Active | – | –
10 | CCC1(CCC(C)C)C(=O)NC(=O)NC1=O [AMOBARBITAL] | Not Active | Not Active | Not Active | Not Active | Not Active | Not Active | Not Active | Not Active | – | –
11 | CC1(C)S[C@@H]2[C@H](NC(=O)[C@H](N)c3ccccc3)C(=O)N2[C@H]1C(=O)O [AMPICILLIN] | Not Active | Not Active | Not Active | Not Active | Not Active | Not Active | Not Active | Not Active | – | –
12 | COc1ccc(C2C(=O)c3ccccc3C2=O)cc1 [ANISINDIONE] | Not Active | Not Active | Not Active | Not Active | Not Active | Not Active | Not Active | Not Active | – | –
13 | O=C1O[C@H]([C@@H](O)CO)C(O)=C1O [ASCORBIC ACID] | Not Active | Not Active | Not Active | Not Active | Not Active | Not Active | Not Active | Not Active | – | –
14 | CN1[C@@H]2CC[C@H]1C[C@@H](OC(=O)C(CO)c1ccccc1)C2 (stereo partly specified) [ATROPINE] | Not Active | Not Active | Not Active | Not Active | Not Active | Not Active | Not Active | Not Active | – | –
15 | CC(C(=O)O)c1ccc2oc(-c3ccc(Cl)cc3)nc2c1 (stereo unspecified) [BENOXAPROFEN] | Not Active | Not Active | Not Active | Not Active | Not Active | Not Active | Not Active | Not Active | – | –
16 | COc1ccc2cc3[n+](cc2c1OC)CCc1cc2c(cc1-3)OCO2.[Cl-] [BERBERINE CHLORIDE] | Not Active | Not Active | Not Active | Not Active | Not Active | Not Active | Not Active | Not Active | – | –
17 | O=C(O)CCNC(=O)c1ccccc1 [BETAMIPRON] | Not Active | Not Active | Not Active | Not Active | Not Active | Not Active | Not Active | Not Active | – | –
18 | CC(=O)Oc1ccc(C(c2ccc(OC(C)=O)cc2)c2ccccn2)cc1 [BISACODYL] | Not Active | Not Active | Not Active | Not Active | Not Active | Not Active | Not Active | Not Active | – | –
19 | Cc1cc2c(OCC(CNC(C)(C)C)OC(=O)c3ccccc3)cccc2[nH]1 (stereo unspecified) [BOPINDOLOL] | Not Active | Not Active | Not Active | Not Active | Not Active | Not Active | Not Active | Not Active | – | –
20 | Brc1c(NC2=NCCN2)ccc2nccnc12 [BRIMONIDINE] | Not Active | Not Active | Not Active | Not Active | Not Active | Not Active | Not Active | Not Active | – | –
21 | CN(C)[C@@H]1C(O)=C(C(N)=O)C(=O)[C@@]2(O)C(O)=C3C(=O)c4c(O)ccc(Cl)c4[C@@](C)(O)[C@H]3C[C@@H]12 [CHLORTETRACYCLINE] | Not Active | Not Active | Not Active | Not Active | Not Active | Not Active | Not Active | Not Active | – | –
22 | CN/C(=N\CCSCc1nc[nH]c1C)NC#N [CIMETIDINE] | Not Active | Not Active | Not Active | Not Active | Not Active | Not Active | Not Active | Not Active | – | –
23 | C[C@@H](CO)NC(=O)[C@@H]1C=C2c3cccc4[nH]cc(c34)C[C@H]2N(C)C1 [ERGONOVINE] | Not Active | Not Active | Not Active | Not Active | Not Active | Not Active | – | – | 8.55 | 8.89
24 | CC(=O)O[C@H]1C(=O)[C@@]2(C)[C@H]([C@H](OC(=O)c3ccccc3)[C@]3(O)C[C@H](OC(=O)[C@H](O)[C@@H](NC(=O)c4ccccc4)c4ccccc4)C(C)=C1C3(C)C)[C@]1(OC(C)=O)CO[C@@H]1C[C@@H]2O [PACLITAXEL] | Not Active | Not Active | Not Active | Not Active | Not Active | Not Active | Not Active | – | – | –
